In patent US6348485B1, “Method for treating or preventing sleep disorders” (Takeda Chemical Industries, Ltd., priority 1998, dated 2002):

Columns and labels:
[1] = system: crab-eating macaques (Macaca fascicularis); test: Sleep latencies at nighttime in monkeys (EEG/EMG/EOG sleep stage classification); assay type: in vivo; settings: vs control
Method: (§1) Six female crab-eating macaques (Macaca fascicularis), weighing 2.8-4.2 kg, were housed individually in a room maintained at 24±1° C. with a 12-h light/dark cycle (light on 6:00). Under sodium pentobarbital anesthesia, stainless steel screw and bipolar electrodes for electroencephalogram (EEG), electromyogram (EMG) and electro-oculogram (EOG) were implanted. After recovery from surgery, the monkeys were well habituated to the recording chamber (60×60×80 cm) located in a sound-proof and electrically shielded room. Compound A (0.003 mg/kg) and/or triazolam (0.03 mg/kg) were given orally 17:50-17:55. Compound A and triazolam were suspended in 0.5% methylcellulose solution. The control monkey was given 0.5% MC. The behaviors of subjects were observed using a video camera with infrared light sensitivity. EEG, EMG and EOG were recorded on a MO disk with an electroencephalograph (EE5518, NEC Medical Systems, Tokyo, Japan). All recordings were carried out from 18:00 until 6:00. The EEG power spectral analysis was also performed continuously by means of a fast Fourier transform (FFT) system equipped with a personal computer. […] Latencies of each sleep stage (the time until the first appearance of each sleep stage) were determined from 18:00. The occurrence of each sleep stage at nighttime and other sleep parameters were also determined.

[2] = system: crab-eating macaques (Macaca fascicularis); test: Observation of general behavior of monkeys (video camera); assay type: in vivo; settings: triazolam 0.03 mg/kg p.o. alone
Method: as §1

SMILES	effect on the sleep latencies ([1]; triazolam 0.03 mg/kg p.o. alone)	ataxia and sedation [2]	effect on general behavior [2]	effect on the latency of any sleep stages ([1]; compound A 0.003 mg/kg p.o. alone)
Cc1nnc2n1-c1ccc(Cl)cc1C(c1ccccc1Cl)=NC2 [triazolam, 8-chloro-6-(2-chlorophenyl)-1-methyl-4H-[1,2,4]triazolo[4,3-a][1,4]benzodiazepine]	no significant effects	did not cause	did not affect	–
CCC(=O)NCC[C@@H]1CCc2ccc3c(c21)CCO3 [compound A, (S)-N-[2-(1,6,7,8-tetrahydro-2H-indeno[5,4-b]furan-8-yl)ethyl]propionamide]	–	–	–	no significant effects
